Measured values: US11708348B2, “Protease inhibitors for treatment of coronavirus infections” (The Scripps Research Institute, priority 2021, dated 2023)
Where two headings read alike, the source gives them in different places.

Test system: SARS-CoV-2 strain USA-WA1/2020
Test: microbe, parasite or virus in culture
Type: cell-based
Conditions: Severe acute respiratory syndrome coronavirus 2, HeLa-ACE2, 24 h, read-out: EC50, uM (Hela)
[1] = HeLa-ACE2 cells, SARS-CoV-2 infection, 24 h
[2] = HeLa-ACE2 cells, SARS-CoV-2 infection, 24 h, class symbols

Row | SMILES | EC50 [1] [µM] | EC50 [2] [µM] | further results
1 | CC(C)(C)[C@H](NC(=O)C(F)(F)F)C(=O)N1C[C@@H]2CCC[C@@H]2[C@H]1C(=O)N[C@@H](C[C@@H]1CCNC1=O)C(=O)COC(F)(F)F [Compound 266, (1S,3aR,6aS)-2-((S)-3,3-dimethyl-2-(2,2,2-trifluoroacetamido)-butanoyl)-N-((S)-3-oxo-1-((S)-2-oxopyrrolidin-3-yl)-4-(trifluoromethoxy)butan-2-yl)octahydrocyclo-penta[c]pyrrole-1-carboxamide] |  |  | EC50: < 0.05 µM
2 | O=C1NCC[C@H]1C[C@H](NC(=O)[C@@H]1CC2(CC2)CN1C(=O)CC(F)(F)C(F)F)C(=O)COC(F)(F)F [Compound 684, (S)-N-((S)-3-oxo-1-((S)-2-oxopyrrolidin-3-yl)-4-(trifluoromethoxy)butan-2-yl)-5-(3,3,4,4-tetrafluorobutanoyl)-5-azaspiro[2.4]heptane-6-carboxamide] | 0.05 to 0.2 |  | 
3 | O=C(NCC(F)(F)F)C(=O)N[C@@H](CC1CC1)C(=O)N[C@@H](C[C@@H]1CCNC1=O)C(=O)COC(F)(F)F [Compound 517, N1-((S)-3-cyclopropyl-1-oxo-1-(((S)-3-oxo-1-((S)-2-oxopyrrolidin-3-yl)-4-(trifluoromethoxy)butan-2-yl)amino)propan-2-yl)-N2-(2,2,2-trifluoroethyl)oxalamide] | < 0.05 |  | 
4 | CC(C)C[C@H](NC(=O)C(=O)NC1CC1)C(=O)N[C@@H](C[C@@H]1CCNC1=O)C(=O)COc1c(F)c(F)cc(F)c1F [Compound 98, N1-cyclopropyl-N2-((S)-4-methyl-1-oxo-1-(((S)-3-oxo-1-((S)-2-oxopyrrolidin-3-yl)-4-(2,3,5,6-tetrafluorophenoxy)butan-2-yl)amino)pentan-2-yl)oxalamide] |  | 0.05 to 0.2 | 
5 | CC1(CC(NC(=O)C(=O)NC2CC2)C(=O)N[C@@H](C[C@@H]2CCNC2=O)C(=O)COC(F)(F)F)CC1 (stereo partly drawn) [Compound 578, N1-cyclopropyl-N2-(3-(1-methylcyclopropyl)-1-oxo-1-(((S)-3-oxo-1-((S)-2-oxopyrrolidin-3-yl)-4-(trifluoromethoxy)butan-2-yl)amino)propan-2-yl)oxalamide] | < 0.05 |  | 
6 | CC1(C[C@H](NC(=O)C(=O)NC23CC(F)(C2)C3)C(=O)N[C@@H](C[C@@H]2CCNC2=O)C(=O)COC(F)(F)F)CC1 [Compound 582, N1-(3-fluorobicyclo-[1.1.1]pentan-1-yl)-N2-((S)-3-(l-methyl-cyclopropyl)-1-oxo-1-(((S)-3-oxo-1-((S)-2-oxopyrrolidin-3-yl)-4-(trifluoromethoxy)butan-2-yl)amino)propan-2-yl)oxalamide] | < 0.05 |  | 
7 | COc1ccccc1NC(=O)C(=O)N[C@@H](CC(C)C)C(=O)N[C@@H](C[C@@H]1CCNC1=O)C(=O)COc1c(F)c(F)cc(F)c1F [Compound 112, N1-(2-methoxyphenyl)-N2-((S)-4-methyl-1-oxo-1-(((S)-3-oxo-1-((S)-2-oxopyrrolidin-3-yl)-4-(2,3,5,6-tetrafluorophenoxy)butan-2-yl)amino)pentan-2-yl)oxalamide] |  | 0.05 to 0.2 | 
8 | CC(C)C[C@H](NC(=O)C(=O)NC(C)(C)C)C(=O)N[C@@H](C[C@@H]1CCNC1=O)C(=O)COc1c(F)c(F)cc(F)c1F [Compound 100, N1-(tert-butyl)-N2-((S)-4-methyl-1-oxo-1-(((S)-3-oxo-1-((S)-2-oxopyrrolidin-3-yl)-4-(2,3,5,6-tetrafluorophenoxy)butan-2-yl)amino)pentan-2-yl)oxalamide] |  | 0.05 to 0.2 | 
9 | COc1cccc2[nH]c(C(=O)N[C@@H](CC(C)C)C(=O)N[C@@H](C[C@@H]3CCNC3=O)C(=O)COC(F)F)cc12 [Compound 198, N—((S)-1-(((S)-4-(difluoromethoxy)-3-oxo-1-((S)-2-oxopyrrolidin-3-yl)butan-2-yl)amino)-4-methyl-1-oxopentan-2-yl)-4-methoxy-1H-indole-2-carboxamide] |  | 0.2 to 0.5 | 
